Article PMC4306314, “Differential neuroprotective potential of CRMP2 peptide aptamers conjugated to cationic, hydrophobic, and amphipathic cell penetrating peptides” (Frontiers in Cellular Neuroscience, 2015)
Where two headings read alike, the source gives them in different places. Where no end group is shown, it is not given here.

Legend:
[1] = of the CPP itself; ref Sarko et al., 2010; cited from earlier work
cortical neurons [2] = experiment: Glutamate-induced toxicity, chromogenic cell viability assay; type: cell-based, rat; details: for Prevention of Glu/Gly-induced neuronal cell death by NMDAR subunit blockers: Ifenprodil 1 µM, Peaqx 5 µM, 10 min before and during 200 µM glutamate/20 µM glycine 30 min, 7 DIV, viability 24 h later, 32 wells
Method: E19 neurons (grown in 96 well plates) were stimulated with 200 µM glutamate/20 µM glycine to induce neuronal death as previously described with modifications (Brittain et al., [2011a]). Neurons were pre-treated with peptides by removing half of the culture medium and replacing with fresh medium containing twice the final concentration of peptide. Neurons were then stimulated by removing half the medium and replacing with fresh medium containing 400 µM glutamate/40 µM glycine and 1X peptide concentration. Following a 30 min stimulation the medium was completely removed and replaced with half fresh/half conditioned medium. Cell viability was quantified 24 h later using the 3-(4,5-dimethylthiazol-2-yl)-5-(3-carboxymethoxyphenyl)-2-(4-sulfophenyl)-2H-tetrazolium cell viability assay (Promega, Madison, WI, USA) as previously described (Brittain et al., [2011a]). Subunit-specific NMDAR antagonists Peaqx (NR2A) and Ifenprodil (NR2B) were purchased from Sigma.

CRMP2-NR2B interaction = molecular target: T1, CRMP2-NR2B interaction (Rattus norvegicus, UniProt Q00960); experiment: Co-immunoprecipitation of NR2B with CRMP2 from rat brain lysates; type: binding; details: 10 µM peptide, overnight 4°C, rat brain lysate, immunoblot, n = 4
T1 construct: Rat brains were lysed into the immunoprecipitation buffer; from tissue; host or cells: rat brain
T1 sequence (Q00960 27-1482, other chains not shown): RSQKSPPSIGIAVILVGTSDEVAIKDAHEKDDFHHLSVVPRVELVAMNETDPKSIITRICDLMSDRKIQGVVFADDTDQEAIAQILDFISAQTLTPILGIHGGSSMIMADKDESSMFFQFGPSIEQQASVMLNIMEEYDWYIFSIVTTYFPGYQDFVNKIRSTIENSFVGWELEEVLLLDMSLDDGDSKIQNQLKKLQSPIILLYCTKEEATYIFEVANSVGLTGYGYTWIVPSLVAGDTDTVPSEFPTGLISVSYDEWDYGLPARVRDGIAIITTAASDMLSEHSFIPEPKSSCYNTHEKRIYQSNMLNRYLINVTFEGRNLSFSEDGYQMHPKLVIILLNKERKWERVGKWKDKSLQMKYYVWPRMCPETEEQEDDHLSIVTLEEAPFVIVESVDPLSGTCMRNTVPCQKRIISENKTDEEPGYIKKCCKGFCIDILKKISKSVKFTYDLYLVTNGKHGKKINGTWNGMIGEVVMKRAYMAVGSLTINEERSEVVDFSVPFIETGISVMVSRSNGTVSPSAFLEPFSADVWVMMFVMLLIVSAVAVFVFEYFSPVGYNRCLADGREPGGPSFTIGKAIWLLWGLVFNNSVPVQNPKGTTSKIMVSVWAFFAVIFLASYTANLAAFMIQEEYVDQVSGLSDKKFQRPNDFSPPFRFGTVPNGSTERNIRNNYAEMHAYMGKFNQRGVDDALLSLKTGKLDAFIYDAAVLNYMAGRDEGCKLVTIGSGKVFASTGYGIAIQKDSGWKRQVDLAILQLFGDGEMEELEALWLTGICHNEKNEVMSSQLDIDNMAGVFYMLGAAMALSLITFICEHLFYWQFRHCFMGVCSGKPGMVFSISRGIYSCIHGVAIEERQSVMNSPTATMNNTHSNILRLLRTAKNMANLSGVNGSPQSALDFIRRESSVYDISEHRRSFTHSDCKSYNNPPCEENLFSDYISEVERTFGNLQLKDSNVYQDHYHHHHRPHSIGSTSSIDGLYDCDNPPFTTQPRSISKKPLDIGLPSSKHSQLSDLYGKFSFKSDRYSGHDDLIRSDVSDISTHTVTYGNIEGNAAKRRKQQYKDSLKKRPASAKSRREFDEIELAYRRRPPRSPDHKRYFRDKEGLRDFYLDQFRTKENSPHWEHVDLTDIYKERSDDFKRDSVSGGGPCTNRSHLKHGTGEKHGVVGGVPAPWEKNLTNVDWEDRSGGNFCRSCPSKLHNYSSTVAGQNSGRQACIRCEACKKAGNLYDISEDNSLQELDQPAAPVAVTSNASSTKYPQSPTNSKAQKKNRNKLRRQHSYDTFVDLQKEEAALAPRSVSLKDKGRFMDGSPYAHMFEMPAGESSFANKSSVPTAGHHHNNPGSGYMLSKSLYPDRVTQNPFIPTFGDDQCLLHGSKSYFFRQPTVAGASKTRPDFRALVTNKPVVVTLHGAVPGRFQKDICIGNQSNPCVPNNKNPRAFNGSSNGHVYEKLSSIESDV
Method: Rat brains were lysed into the immunoprecipitation buffer containing 20 mM Tris-HCl pH 7.4, 50 mM NaCl, 2 mM MgCl2, 1% (vol/vol) NP40, 0.5% (mass/vol) sodium deoxycholate with Protease/phosphatase inhibitors cocktails (Calbiochem) and Benzonase (50 U/mL^−1), using a dounce homogenizer. The lysates were clarified by centrifugation at 10000 g, 10 min, 4°C then total protein concentration was determined by BCA protein assay (Cat# PI23225, Thermo scientific). For the co-immunoprecipitation, 300 µg of total protein was incubated with 1 µg of CRMP2 antibody (Cat# C2993, Sigma, St. Louis, MO, USA) of non-specific rabbit IgG, in the presence of 10 µM of the indicated peptides and incubated overnight at 4°C under gentle agitation. Protein G magnetic beads (Cat# 10004D, Life Technologies) pre-equilibrated with the immunoprecipitation buffer, were added to the mixture and allowed to incubate for 1 h at 4°C to capture the immuno-complexes. The beads were washed four times with the immunoprecipitation buffer before re-suspension in Laemmli buffer and boiling at 95°C for 5 min prior to immunoblotting.
Indicated samples were loaded on 4–12% NuPAGE® gels (Life Technologies). […] Films were scanned, and quantified using Un-Scan-It gel version 6.1 scanning software (Silk Scientific Inc, Orem, UT, USA).

[3] = system: GPMVs derived from cortical neurons; experiment: Peptide penetration into giant plasma membrane vesicles (GPMVs), di-4-ANEPPDHQ staining; type: in vitro ADME, rat; details: 10 µM peptide; for Change in percent of GPMVs with intracellular staining, vesicles from Glu/Gly-challenged vs unchallenged cells: neurons challenged 1 h with 200 µM glutamate + 20 µM glycine before vesiculation
Method: Giant plasma membrane vesicles (GPMVs) were obtained as previously described in Sezgin et al. ([2012]). Briefly, GPMVs were generated from cortical neurons incubated at 37°C for 90 min in a vesiculation buffer containing 10 mM HEPES, 150 mM NaCl, 2 mM CaCl2, pH 7.4 containing 2 mM N-ethyl maleimide (NEM). After GPMV formation, the buffer containing vesicles was recovered and conserved at 4°C for at least 2 h to allow the vesicles to concentrate at the bottom of the tube. As the GPMVs were stable for ~48 h (data not shown), they were used the day after formation at the latest.
All experiments for microscopic analyses of GPMVs were performed on 35 mm glass bottom dishes pre-coated with BSA (1 mg/mL for 1 h at room temperature). Approximately 100 µL of GMPVs labeled with 5 µM di-4-ANEPPDHQ were incubated for 3 h at room temperature with 10 µM of CBD3 peptide aptamers. di-4-ANEPPDHQ, a styryl dye that was originally developed to detect transmembrane potential changes, is considered to be a good probe for rafts (Jin et al., [2005]) and was used to label GPMVs. di-4-ANEPPDHQ is able to partition into both liquid-ordered and liquid-disordered phase domains in model membranes, reacts to the environmental difference between the two phases via conformational changes, thus resulting in different fluorescence properties (Jin et al., [2005]). Here, we studied the 500–550 nm emission of the probe, which accounts largely for the liquid ordered phase.
Fluorescence imaging was performed with an inverted microscope, Nikon Eclipse TE2000-U, using objective Nikon Super Fluor 20× 0.75 NA and a Photometrics cooled CCD camera CoolSNAPHQ-ES2 (Roper Scientific, Tucson, AZ, USA) controlled by MetaFluor 6.3 software (Molecular Devices, Downingtown, PA, USA). […] Twenty images of each condition were systematically recorded randomly, using a FITC filter (excitation and emission wavelength 488 nm and 500–550 nm, respectively), which accounted for the liquid ordered contribution of di-4-ANEPPDHQ or the localization of FITC-peptides.

cortical neurons [4] = experiment: Uptake and efflux of FITC-labeled CBD3 peptides from cortical neurons; type: in vitro ADME, rat; details: for Cumulative efflux (AUC), glutamate-challenged vs unchallenged cells, long-term application: chronic peptide treatment, media sampled up to 3 h
Method: Cortical neurons were seeded into 96-well plates at 3.5 × 10^4 cells per well and cultured until 7 DIV at 37°C and 5% CO2. […] After four washes with phenol red free Leibovitz medium, the FITC fluorescence in the cells was measured using a Synergy 2 fluorescent plate reader (Biotek, Winooski, VT, USA) at an excitation wavelength of 485 nm and emission wavelength of 530 nm. […] To correct for any differences in cell plating, at the end of the experiment cortical neurons were lysed with 20 mM Tris, pH 7.4, 50 mM NaCl, 1% NP40, 0.5% sodium deoxycholate, 0.1% SDS Protease inhibitor cocktail set III (Calbiochem), phosphatase inhibitor cocktail set I (Calbiochem), 50 U/ml benzonase (Merck) and the protein quantity determined with a Pierce assay.

[5] = parameters: method as in Wender et al., 2000; details: ref Wender et al., 2000; cited from earlier work

Compound: YGRKKRRQRRR [TAT]
- Half-life (t1/2) [1]: ~ 9 h

Compound: CC(C(O)c1ccc(O)cc1)N1CCC(Cc2ccccc2)CC1 (centres unmarked) [Ifenprodil, reference compound]
- Prevention of Glu/Gly-induced neuronal cell death by NMDAR subunit blockers (cortical neurons [2]): completely prevent

Compound: RRRRRRRRRARSRLAELRGVPRGL [R9-CBD3]
- Inhibition of NR2B-CRMP2 interaction relative to no peptide control (CRMP2-NR2B interaction): ~ 80%
- IC50 (cortical neurons [2]; 24 h): ~564 nM

Compound: C[C@H](NC(c1cccc2[nH]c(=O)c(=O)[nH]c12)P(=O)(O)O)c1ccc(Br)cc1 (some centres unmarked) [Peaqx, reference compound]
- Prevention of Glu/Gly-induced neuronal cell death by NMDAR subunit blockers (cortical neurons [2]): not

Compound: KLALKLALKALKAALKLA [MAP]
- Half-life (t1/2) [1]: > 72 h

Compound: KLALKLALKALKAALKLAARSRLAELRGVPRGL [MAP-CBD3]
- Inhibition of NR2B-CRMP2 interaction relative to no peptide control (CRMP2-NR2B interaction): ~ 60%

Compound: YGRKKRRQRRRARSRLAELRGVPRGL [TAT-CBD3]
- Percent of GPMVs exhibiting lumenal accumulation of smaller vesicles ([3]; GPMVs from control (untreated) cortical neurons, 5 µM di-4-ANEPPDHQ, room temperature, 3 h (methods) or 60 min, fluorescence microscopy, n = 2 experiments): ~ 54%
- Change in percent of GPMVs with intracellular staining, vesicles from Glu/Gly-challenged vs unchallenged cells [3]: did not alter
- Efflux fluorescence compared to MTS-CBD3-treated cells, long-term application (cortical neurons [4]; 1, 2 and 3 h post peptide application, irrespective of excitotoxic challenge): lower
- Cumulative efflux (AUC), glutamate-challenged vs unchallenged cells, long-term application (cortical neurons [4]): indistinguishable
- IC50 (cortical neurons [2]; concentration-response viability curve, four-parameter fit, variable Hill slope, 32 wells from two experiments, extrapolated, read-out: IC50 for inhibition of glutamate-mediated toxicity): 3200 nM

Compound: AAVALLPAVLLALLAP [MTS]
- Half-life (t1/2) [1]: ~ 48 h

Compound: RRRRRRRRR [R9, nona-arginine]
- Penetration compared to TAT [5]: greater than 20 fold
- Half-life (t1/2) [1]: ~ 2 h

Compound: AAVALLPAVLLALLAPARSRLAELRGVPRGL [MTS-CBD3]
- Change in percent of GPMVs with intracellular staining, vesicles from Glu/Gly-challenged vs unchallenged cells [3]: did not alter
- Cumulative efflux (AUC), glutamate-challenged vs unchallenged cells, long-term application (cortical neurons [4]): ~ 24%
